Assay results as given in patent US20020137929A1, “1 - (3-heterocyclylphenyl) isothiourea, -isourea, -guanidine and -amidine herbicidal agents” (Intellectual Property Department, BASF Aktiengesellschaft, priority 1998, published 2002).

How the values were obtained:
[1] = tested on: IPOSS (Morningglory Spp.); test: Postemergence herbicidal evaluation; format: in vivo, Ipomoea Spp.
Experimental: In the tests, seedling plants are grown in jiffy flats for about two weeks. The test compounds are dispersed in 50/50 acetone/water mixtures containing 0.5% TWEEN®20, a polyoxyethylene sorbitan monolaurate surfactant of Atlas Chemical Industries, in sufficient quantities to provide the equivalent of about 0.0156 kg to 0.500 kg per hectare of active compound when applied to the plants through a spray nozzle operating at 40 psi for a predetermined time. After spraying, the plants are placed on greenhouse benches and are cared for in accordance with conventional greenhouse procedures. From four to five weeks after treatment, the seedling plants are examined and rated according to the rating system set forth below. Where more than one test is involved for a given compound, the data are averaged.
Plant species employed in these evaluations are reported by header abbreviation, common name and scientific name.
(§1) Results of herbicide evaluation are expressed on a rating scale (0-9). The scale is based upon a visual observation of plant stand, vigor, malformation, size, chlorosis and overall plant appearance as compared with a control.

MOOVA (Monochoria) = test: Postemergence weed control under flooded paddy conditions; format: in vivo, Monochoria vaginalis; conditions: postemergence weeds, 3-4 weeks after treatment
Method in brief: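 With weeds 3 to 5 cm tall and rice at the 1.5 to 2.5 leaf stage, containers were flooded and water held 1.5 to 3 cm above soil. Compounds in 50/50 v/v aqueous/acetone went into the flood water at about 0.0313 to 0.500 kg/ha a.i. Effects were visually rated 0–9 against controls after three to four weeks in the greenhouse.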

CYPIR (Rice Flatsedge) = test: Preemergence weed control under flooded paddy conditions; format: in vivo, Cyperus iria; conditions: rated 3-4 weeks after treatment
Method in brief: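 Seeds or propagules sown in silt loam kept flooded 1.5-3 cm; compounds in 50/50 acetone/water pipetted into flood water at about 0.0313 to 0.500 kg/ha. Greenhouse; visual 0-9 rating versus untreated control 3-4 weeks after treatment.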

[2] = tested on: IPOSS (Morningglory Spp.); test: Preemergence herbicidal evaluation; format: in vivo, Ipomoea Spp.; conditions: rated 4-5 weeks after treatment
Excerpt: as §1
The preemergence herbicidal activity of the test compounds of the present invention is exemplified by the following tests in which the seeds of a variety of monocotyledonous and dicotyledonous plants are separately mixed with potting soil and planted on top of approximately one inch of soil in separate pint cups. After planting, the cups are sprayed with the selected aqueous acetone solution containing test compound in sufficient quantity to provide the equivalent of about 0.0156 to 0.500 kg per hectare of test compound per cup. The treated cups are then placed on greenhouse benches, watered and cared for in accordance with conventional greenhouse procedures. From four to five weeks after treatment, the tests are terminated and each cup is examined and rated according to the rating system provided in Example 37.
The compounds evaluated are reported by compound number given in Example 37.

AMBEL (Ragweed, Common) = test: Preemergence herbicidal evaluation; format: in vivo, Ambrosia artemisifolia; conditions: rated 4-5 weeks after treatment
Method in brief: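 Seeds were planted in potting soil in cups, then sprayed preemergence with the test compound in aqueous acetone at about 0.0156 to 0.500 kg per hectare. Cups were kept under greenhouse conditions and visually rated 4–5 weeks after treatment on a 0–9 scale against an untreated control.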

`C=CCN1C(=O)CSC1=Nc1cc(N2C(=O)C3=C(CCCC3)C2=O)c(F)cc1Cl` [Compound 2, N-{5-[(3-allyl-4-oxo-2-thiazolidinylidene)amino]-4-chloro-2-fluorophenyl}-1-cyclohexene-1,2-dicarboximide] was tested, and the IPOSS herbicidal rating ([1]; rate 0.0157 kg/ha) was 4.0, the IPOSS herbicidal rating ([1]; rate 0.0313 kg/ha) was 4.0 and the IPOSS herbicidal rating ([1]; rate 0.0625 kg/ha) was 4.0. The IPOSS herbicidal rating ([1]; rate 0.1250 kg/ha) was 6.0, the IPOSS herbicidal rating ([1]; rate 0.2500 kg/ha) was 9.0 and the IPOSS herbicidal rating ([1]; rate 0.5000 kg/ha) was 9.0. The “Herbicidal rating MOOVA” value (MOOVA (Monochoria); rate 0.0313 kg/ha) was 2.0, the “Herbicidal rating MOOVA” value (MOOVA (Monochoria); rate 0.0625 kg/ha) was 4.5 and the “Herbicidal rating MOOVA” value (MOOVA (Monochoria); rate 0.1250 kg/ha) was 5.5. For the same compound, the “Herbicidal rating MOOVA” value (MOOVA (Monochoria); rate 0.2500 kg/ha) was 9.0, the “Herbicidal rating MOOVA” value (MOOVA (Monochoria); rate 0.5000 kg/ha) was 9.0 and the “Herbicidal rating CYPIR” value (CYPIR (Rice Flatsedge); 0.0313 kg/ha) was 0.0. For the same compound, the “Herbicidal rating CYPIR” value (CYPIR (Rice Flatsedge); 0.0625 kg/ha) was 0.0, the “Herbicidal rating CYPIR” value (CYPIR (Rice Flatsedge); 0.1250 kg/ha) was 0.0 and the “Herbicidal rating CYPIR” value (CYPIR (Rice Flatsedge); 0.2500 kg/ha) was 0.0. For the same compound, the “Herbicidal rating CYPIR” value (CYPIR (Rice Flatsedge); 0.5000 kg/ha) was 1.0, the “IPOSS preemergence herbicidal rating” value ([2]; rate 0.0313 kg/ha) was 0.0 and the “IPOSS preemergence herbicidal rating” value ([2]; rate 0.0625 kg/ha) was 0.0. The “IPOSS preemergence herbicidal rating” value ([2]; rate 0.1250 kg/ha) was 0.0, the “IPOSS preemergence herbicidal rating” value ([2]; rate 0.2500 kg/ha) was 0.0 and the “IPOSS preemergence herbicidal rating” value ([2]; rate 0.5000 kg/ha) was 0.0. For the same compound, the “AMBEL preemergence herbicidal rating” value (AMBEL (Ragweed, Common); rate 0.0313 kg/ha) was 0.0, the “AMBEL preemergence herbicidal rating” value (AMBEL (Ragweed, Common); rate 0.0625 kg/ha) was 0.0 and the “AMBEL preemergence herbicidal rating” value (AMBEL (Ragweed, Common); rate 0.1250 kg/ha) was 0.0. The “AMBEL preemergence herbicidal rating” value (AMBEL (Ragweed, Common); rate 0.2500 kg/ha) was 0.0 and the “AMBEL preemergence herbicidal rating” value (AMBEL (Ragweed, Common); rate 0.5000 kg/ha) was 0.0.

`CN1C(=O)CS/C1=N/c1cc(-n2c(=O)cc(C(F)(F)F)n(C)c2=O)c(F)cc1Cl` [Compound 7] gave an IPOSS herbicidal rating ([1]; rate 0.0157 kg/ha) of 6.0, an IPOSS herbicidal rating ([1]; rate 0.0313 kg/ha) of 7.0 and an IPOSS herbicidal rating ([1]; rate 0.0625 kg/ha) of 9.0. The “Herbicidal rating MOOVA” value (MOOVA (Monochoria); rate 0.0313 kg/ha) was 9.0, the “Herbicidal rating MOOVA” value (MOOVA (Monochoria); rate 0.0625 kg/ha) was 9.0 and the “Herbicidal rating MOOVA” value (MOOVA (Monochoria); rate 0.1250 kg/ha) was 9.0. The “Herbicidal rating MOOVA” value (MOOVA (Monochoria); rate 0.2500 kg/ha) was 9.0, the “Herbicidal rating CYPIR” value (CYPIR (Rice Flatsedge); 0.0313 kg/ha) was 8.0 and the “Herbicidal rating CYPIR” value (CYPIR (Rice Flatsedge); 0.0625 kg/ha) was 9.0. The “Herbicidal rating CYPIR” value (CYPIR (Rice Flatsedge); 0.1250 kg/ha) was 9.0, the “Herbicidal rating CYPIR” value (CYPIR (Rice Flatsedge); 0.2500 kg/ha) was 9.0 and the “IPOSS preemergence herbicidal rating” value ([2]; rate 0.0157 kg/ha) was 9.0. The “IPOSS preemergence herbicidal rating” value ([2]; rate 0.0313 kg/ha) was 9.0, the “IPOSS preemergence herbicidal rating” value ([2]; rate 0.0625 kg/ha) was 9.0 and the “IPOSS preemergence herbicidal rating” value ([2]; rate 0.1250 kg/ha) was 9.0. For the same compound, the “IPOSS preemergence herbicidal rating” value ([2]; rate 0.2500 kg/ha) was 9.0, the “AMBEL preemergence herbicidal rating” value (AMBEL (Ragweed, Common); rate 0.0157 kg/ha) was 5.0 and the “AMBEL preemergence herbicidal rating” value (AMBEL (Ragweed, Common); rate 0.0313 kg/ha) was 8.5. For the same compound, the “AMBEL preemergence herbicidal rating” value (AMBEL (Ragweed, Common); rate 0.0625 kg/ha) was 9.0, the “AMBEL preemergence herbicidal rating” value (AMBEL (Ragweed, Common); rate 0.1250 kg/ha) was 9.0 and the “AMBEL preemergence herbicidal rating” value (AMBEL (Ragweed, Common); rate 0.2500 kg/ha) was 9.0.
